Measurements: patent US20250120905A1, “THERAPEUTIC AGENTS TARGETING THE LYMPHATIC SYSTEM” (VIVASOR, INC, priority 2021, published 2025)

How the values were obtained:
[1] = test system: patients with moderately to severely active Rheumatoid Arthritis (RA); assay: Phase 1b study of Enbrel administered by SOFUSA: tender and swollen joint counts; type: in vivo, human
Source text: (§1) An exemplary Sofusa Lymphatic Delivery System (SOFUSA) was designed to access the lymphatic system directly through the skin at the epidermal/dermal boundary (See FIG. 1) such that the infusion accessed afferent lymphatic capillaries when employed as described in Examples 2 and 3, below. The exemplary SOFUSA system was comprised of a microneedle device (see, e.g., FIG. 3A) and a syringe pump configured to administer anti-arthritic therapeutic agent, such as Enbrel, into the lymphatic circulation through the skin. This configuration was optimized to provide flow rates and pharmacokinetics using lymphatic anti-arthritic drug delivery in early phase clinical trials. The exemplary SOFUSA device was attached to the body of subjects via an attachment system that domed the skin upwards for consistent microneedle penetration, and a nylon strap with Velcro® that comfortably held the device down on the skin, keeping the microneedles in position until the dosing was complete (See, e.g., FIG. 2). Dose volume and infusion rate were set with an infusion pump (See, e.g., FIG. 2).
(§2) SOFUSA microneedles were arranged into an array and placed on the skin using a mechanical impact applicator. A solution comprising Enbrel at a concentration of approximately 50 milligrams per milliliter (50 mg/mL) was then administered at a controlled infusion rate into the device, through the microneedles and into the skin using an external syringe pump. The solution comprising Enbrel was delivered into the body at an infusion rate of 0.5 milliliters per hour (mL/hr), which corresponded to an infusion period of one hour to deliver a 25 mg dose and 2 hours to deliver a 50 mg dose.
(§3) In this ongoing Phase 1b study, 25 mg of Enbrel (50% of the non-SOFUSA delivered subcutaneous dose) was administered lymphatically once weekly via SOFUSA to patients for 12 weeks. The study design calls for an increase in the SOFUSA-administered Enbrel dose to 50 mg during the dose escalation phase of the study (weeks 4-8) provided that dose escalation criteria are met. Patients remain on either the 25 mg or 50 mg dose for the final maintenance phase of the study. The dose escalation criteria for the Enbrel dose to be increased from 25 mg to 50 mg are: a DAS28 (ESR)≥3.2 and an increase in DAS28 (ESR)>0.6 compared to baseline.
(§4) Patients entered in the study had been treated with subcutaneous Enbrel with or without continuation of MTX, and have had either a primary (lack of sufficient efficacy with initial treatment) or secondary (initial efficacy but became inefficacious over time) inadequate response with the maximum approved dose of Enbrel. […] To the extent that inadequate response to Enbrel in some patients may be due to insufficient Enbrel levels in target lymphoid tissues or an inadequate immunologic response, Enbrel administered into the lymphatic system via SOFUSA was therefore theorized to provide a favorable clinical response despite an inadequate response to subcutaneous Enbrel administration.
(§5) This patient received SOFUSA-administered Enbrel at a 25 mg dosage once weekly for 12 weeks. Each week, SOFUSA was applied to the dorsal forearm with alternating left and right arm locations and the SOFUSA-administered Enbrel solution was infused through the skin into the lymphatic circulation for one hour.
Joint counts were performed every 2 weeks. There was observed a consistent decrease in the number of tender and swollen joints using both 66/68 and 28 joint count criteria for the entire 12-week dosing period (See FIG. 5A and FIG. 5B, respectively).

[2] = test system: patients with moderately to severely active Rheumatoid Arthritis (RA); assay: Phase 1b study of Enbrel administered by SOFUSA: DAS28 (ESR/CRP) disease activity scores; type: in vivo, human; conditions: Patient ID 01-002
Source text: as §1, §2, §3, §4, §5
Disease Activity Scores (DAS) 28 (DAS28) DAS28) were calculated based on 28 tender and swollen joints, Patient Global Assessment of Disease Activity, and C-Reactive Protein (CRP) or Erythrocyte Sedimentation Rate (ESR). DAS28 (ESR) and DAS28 (CRP) scores for Patient ID 01-002 are shown in FIG. 4A and FIG. 4B, respectively.

[3] = test system: patients with moderately to severely active Rheumatoid Arthritis (RA); assay: Phase 1b study of Enbrel administered by SOFUSA: patient/physician disease activity and pain Visual Analog Scale; type: in vivo, human; conditions: for Patient Assessment of Pain (VAS) decrease / Patient Global Assessment of Disease Activity (VAS) decrease / Physician Global Assessment of Disease Activity (VAS) decrease: SOFUSA Enbrel 25 mg once weekly for 12 weeks
Source text: as §1, §2, §3, §4, §5
Ratings were performed by each patient and physician on a Visual Analog Scale (VAS) every 2 weeks for disease activity (patient and physician) and disease-related pain (patient). […] In addition, the Patient Assessment of Pain for Patient ID 01-002 decreased from 46 mm at week 0 to 29 mm at week 12 (i.e., 37.0% decrease). The Physician Global Assessment of Disease Activity for Patient ID 01-002 decreased substantially from 50 mm at week 0 to 15 mm at week 12, corresponding to a 70.0% decrease in disease activity.

[4] = test system: patients with moderately to severely active Rheumatoid Arthritis (RA); assay: Phase 1b study of Enbrel administered by SOFUSA: ACR response; type: in vivo, human; conditions: week 10 vs baseline (week 0); Patient 01-002 and Patient 01-004; SOFUSA Enbrel 25 mg once weekly
Source text: as §1
SOFUSA microneedles were arranged into an array and placed on the skin using a mechanical impact applicator. […]

patients with RA = conditions: cited from earlier work
[5] = test system: patients with moderately to severely active Rheumatoid Arthritis (RA); assay: Phase 1b study of Enbrel administered by SOFUSA: DAS28 (ESR/CRP) disease activity scores; type: in vivo, human; conditions: Patient 01-004; SOFUSA Enbrel 25 mg once weekly; indicative of remission
[6] = Etanercept lymph node concentrations after IV, SC, ID or lymphatic (Sofusa) delivery; type: in vivo; conditions: for etanercept concentration in lymph nodes, lymphatic (Sofusa) vs IV administration: percentage initial dose per gram of lymph tissue
Description: Etanercept was administered to subjects either via intravenous (IV), subcutaneous (SC), Intradermal (ID), or lymphatic (Sofusa) delivery. Average etanercept concentrations (expressed as percentage initial dose per gram of lymph tissue) in lymph node tissue was then determined at twelve and 36 hours post-administration. […] In particular, etanercept concentrations at 12 hours post lymphatic (Sofusa) administration were approximately 40-fold greater, and approximately 9-fold greater at 36 hours, than etanercept concentrations administered via IV.
Methods and procedures for some of these experiments have been adapted from Aldrich, et al., Arthritis Res. Ther., (2017), 19:116 (DOI 10.1186/s13075-017-1323-z; Open Access) which is incorporated by reference herein in its entirety for all purposes.

local lymphatic function = assay: Near-Infrared Fluorescence (NIRF) lymphatic imaging with Indocyanine Green; type: in vivo, human
Description: The local lymphatic function was measured using Near-Infrared Fluorescence (NIRF) imaging techniques with Indocyanine Green (ICG) at the beginning, at 6 weeks, and at the end of the study. […] The ICG was delivered at the opposite arm location as the Enbrel dosing.
In this regard, it has been speculated that lymphatic dysfunction may encourage the development of rheumatic autoimmune diseases such as scleroderma, lupus, and rheumatoid arthritis (see, e.g., Aletaha, D., et al., Ann. Rheum. Dis., 75, 1479-1485 (2016)). […] NIRF imaging of the lymphatics after infusion of a solution of ICG at the beginning, middle and end of the study. NIRF imaging was used to assess lymphatic pumping in RA patients before and after treatment with SOFUSA with Enbrel. Additionally, the imaging provided a visualization of the lymphatic vessels and was intended to confirm that SOFUSA delivers ICG solution directly into the lymphatics.

[7] = Patient 01-002, by week 12 of the study
[8] = Patient ID 01-002 (FIG. 5), week 0 to week 12, SOFUSA Enbrel 25 mg once weekly
[9] = Patient ID 01-004, SOFUSA Enbrel 25 mg once weekly for 12 weeks
[10] = Patient ID 01-006, SOFUSA Enbrel 25 mg once weekly for 12 weeks
[11] = before SOFUSA dosing, inadequate response to weekly 50 mg Enbrel subcutaneous
[12] = Patient ID 01-002, SOFUSA Enbrel 25 mg once weekly
[13] = Patient ID 01-002, before SOFUSA dosing
[14] = Patient ID 01-002, week 0 to week 12, SOFUSA Enbrel 25 mg once weekly

Substance: etanercept [Enbrel]
- SJC66 decrease (ACR response section) [1, 7]: 55.6%
- TJC68 decrease (ACR response section) [1, 7]: 58.8%
- decrease in number of swollen joints, 28-Joint Count [1, 8]: 28.6%
- decrease in number of swollen joints, full 66-Joint Count [1, 8]: 44.4%
- decrease in number of tender joints, 28 Joint Count [1, 8]: 90.9%
- decrease in number of tender joints, full 68-Joint Count [1, 8]: 70.6%
- SJC66 decrease [1, 9]: 66.7%
- TJC68 decrease [1, 9]: 60.0%
- SJC66 change [1, 10]: unchanged
- TJC68 decrease [1, 10]: 70.6%
- DAS28 (ESR) at week 12 ([2]; SOFUSA Enbrel 25 mg once weekly, baseline 4.58): 3.02
- DAS28 (CRP) at Week 12 ([2]; SOFUSA Enbrel 25 mg once weekly, baseline 4.99): 3.12
- DAS28 (ESR) decrease from baseline ([2]; SOFUSA Enbrel 25 mg once weekly, week 12 vs baseline 4.58): 34.1%
- DAS28 (CRP) decrease from baseline ([2]; SOFUSA Enbrel 25 mg once weekly, week 12 vs baseline 4.99): 37.5%
- DAS28 (ESR) at Week 10 (lowest achieved) ([2]; after 10 weekly 25 mg SOFUSA Enbrel doses, level of remission): 2.10
- DAS28 (CRP) at baseline [2, 11]: 4.99
- DAS28 (CRP) at screening [2, 11]: 4.94
- DAS28 (ESR) at baseline [2, 11]: 4.58
- DAS28 (ESR) at screening [2, 11]: 4.62
- Patient Assessment of Pain (VAS) decrease (ACR response section) [3, 7]: 69.6%
- Patient Global Assessment of Disease Activity (VAS) decrease (ACR response section) [3, 7]: 63.5%
- Physician Global Assessment of Disease Activity (VAS) decrease (ACR response section) [3, 7]: 50.0%
- Patient Assessment of Pain (VAS) at week 12 [3, 12]: 29 mm
- Patient Global Assessment of Disease Activity (VAS, 100 mm) at week 12 [3, 12]: 21 mm
- Physician Global Assessment of Disease Activity (VAS) at week 12 [3, 12]: 15 mm
- Patient Assessment of Pain (VAS) at week 0 [3, 13]: 46 mm
- Patient Global Assessment of Disease Activity (VAS, 100 mm) at week 0 [3, 13]: 52 mm
- Physician Global Assessment of Disease Activity (VAS) at week 0 [3, 13]: 50 mm
- Patient Assessment of Pain, decrease [3, 14]: 37.0%
- Patient Global Assessment of Disease Activity, overall reduction [3, 14]: 59.6%
- Physician Global Assessment of Disease Activity, decrease [3, 14]: 70.0%
- Patient Assessment of Pain (VAS) decrease ([3]; Patient ID 01-004): 100.0%
- Patient Global Assessment of Disease Activity (VAS) decrease ([3]; Patient ID 01-004): 46.7%
- Physician Global Assessment of Disease Activity (VAS) decrease ([3]; Patient ID 01-004): 85.4%
- Patient Global Assessment of Disease Activity (VAS) decrease at week 10 ([3]; Patient ID 01-004, week 10 of the study): 73.3%
- Patient Assessment of Pain (VAS) decrease ([3]; Patient ID 01-006): 98.9%
- Patient Global Assessment of Disease Activity (VAS) decrease ([3]; Patient ID 01-006): 97.1%
- Physician Global Assessment of Disease Activity (VAS) decrease ([3]; Patient ID 01-006): 75.4%
- ACR 50% response [4]: achieved
- efficacy response rate, ACR70 (patients with RA; Enbrel in combination with MTX, delivered systemically): < 50%
- patients achieving ACR70 (patients with RA; Enbrel plus MTX, at 3 and 6 months, Enbrel prescribing information): 15%
- DAS28 (ESR) at week 10 [5]: 2.10
- etanercept concentration in lymph nodes, lymphatic delivery compared to all other tested delivery routes (IV, SC, ID) ([6]; 12 and 36 hours post-administration, FIG. 12): far greater
- etanercept concentration in lymph nodes, lymphatic (Sofusa) vs IV administration ([6]; 12 hours post administration): approximately 40 fold
- etanercept concentration in lymph nodes, lymphatic (Sofusa) vs IV administration ([6]; 36 hours post administration): approximately 9 fold
- lymphatic pump rate at week 0 (local lymphatic function; week 0, before SOFUSA treatment, ICG at opposite arm): less than 0.5 pumps per minute
- lymphatic vessels visible by NIRF imaging at week 6 (local lymphatic function; week 6, after 6 SOFUSA Enbrel doses, vs week 0 (very few vessels visible)): significantly more lymphatic vessels could be imaged
- lymphatic pump rate at week 6 (local lymphatic function; week 6, after 6 SOFUSA Enbrel doses, ICG at opposite arm): greater than 2 pumps per minute
